Holding throughout (type): biochemical
Assay [1] has as its target CDK4-cyclin D1 (Homo sapiens, UniProt P11802). The assay can be described thus: Kinase assay (radioactive phosphate incorporation), CDK4-cyclin D1. Conditions: read-out: Kinase Inhibition pIC50 CDK4-cyclin D1 (converted). The method in brief:
(§1)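 Inhibition measured as 32P transfer from ATP (100 μM, 15 mM MgCl2) onto peptide substrates at 30° C. Each assay used 2-4 μg active recombinant enzyme in pH 7.4 buffer. Reactions stopped on ice, filtered, acid-washed and counted; compounds diluted into 10% DMSO in assay buffer.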

Assay [2] concerns the target CDK9/cyclin T1 (Homo sapiens, UniProt P50750). The assay can be described thus: CDK 9 assay (CTD peptide substrate). The settings on record: read-out: Kinase Inhibition pIC50 CDK9-cyclin T1 (converted). The method in brief:
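32P transfer from 100 μM ATP (trace [γ-32P]ATP) to a biotinyl CTD (YSPTSPS)4 peptide was measured after 45 min at 30 °C in pH 7.2 MOPS buffer, 15 mM MgCl2, using recombinant human CDK7/cyclin H or CDK9/cyclin T1. Signal read by filter binding and scintillation counting.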

The target in assay [3] is T1, Flt3 (FMS-like tyrosine kinase-3) (Homo sapiens, UniProt P36888).
T1 sequence (P36888 27-993): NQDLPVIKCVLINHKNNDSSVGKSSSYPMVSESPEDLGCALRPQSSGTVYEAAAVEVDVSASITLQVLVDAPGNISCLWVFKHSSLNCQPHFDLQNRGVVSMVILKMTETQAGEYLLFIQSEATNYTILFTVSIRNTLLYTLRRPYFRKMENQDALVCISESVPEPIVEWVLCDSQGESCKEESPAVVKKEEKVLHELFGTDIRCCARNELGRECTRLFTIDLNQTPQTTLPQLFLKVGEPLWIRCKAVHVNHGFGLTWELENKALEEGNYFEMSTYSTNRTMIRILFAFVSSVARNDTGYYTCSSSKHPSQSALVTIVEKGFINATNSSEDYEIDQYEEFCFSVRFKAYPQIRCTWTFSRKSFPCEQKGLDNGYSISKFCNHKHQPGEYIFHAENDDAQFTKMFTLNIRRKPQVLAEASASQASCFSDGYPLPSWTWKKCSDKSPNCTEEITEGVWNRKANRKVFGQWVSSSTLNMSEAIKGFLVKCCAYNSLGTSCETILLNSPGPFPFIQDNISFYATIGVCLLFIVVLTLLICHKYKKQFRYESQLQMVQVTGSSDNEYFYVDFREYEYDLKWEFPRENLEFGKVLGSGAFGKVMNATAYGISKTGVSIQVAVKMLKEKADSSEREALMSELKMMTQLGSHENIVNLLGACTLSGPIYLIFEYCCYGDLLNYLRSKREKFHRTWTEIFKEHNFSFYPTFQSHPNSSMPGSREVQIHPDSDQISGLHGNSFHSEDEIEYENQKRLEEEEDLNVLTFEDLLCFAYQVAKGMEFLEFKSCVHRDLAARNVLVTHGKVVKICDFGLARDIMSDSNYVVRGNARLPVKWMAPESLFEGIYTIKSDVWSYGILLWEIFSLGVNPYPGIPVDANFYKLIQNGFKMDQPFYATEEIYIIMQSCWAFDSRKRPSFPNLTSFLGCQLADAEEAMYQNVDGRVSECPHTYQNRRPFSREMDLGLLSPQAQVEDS
Description: Kinase assay (radioactive phosphate incorporation), Flt3. Conditions: pIC50 is -log(IC50, M), read-out: Kinase Inhibition pIC50 Flt3 (converted). The method in brief:
as §1

Assay [4] deals with T2, protein kinases (panel of Table 4) (Homo sapiens, UniProt P35968).
T2 construct: other: kinase VEGFR2; ATP 100 μM
Description: Kinase selectivity profile, kinase inhibition IC50 (Table 4), ATP 100 μM. The settings on record: kinase VEGFR2. As for the experimental part:
(§2) For the assays shown in Table 3, the kinases were assayed at the following ATP concentrations: SAPK4, PKBΔph, GSK3b, SAPK3, CK2, MKK1, PIM2, IKKB, ERK8, and PRK2 at 5 μM; JNK, PRAK, ROCK-II, SAPK2b, CDK2, CHK1, MSK1, CSK, P70S6K, PKA, CK1, MAPKAP-K2, SGK, PKCa, PDK1, NEK 7, and MAPKAP-K3 at 20 μM; SAPK2a, LCK, AMPK, MAPK2, DYRK1a, MAPKAP-K1a, NEK-6, NEK2a, PBK, CAMK-1, SRPK-1, JNK3, MNK2, RSK2, MNK1, PKBB, and SmMLCK at 50 μM. For the assays in Table 4 the ATP concentration was 100 μM throughout.

For assay [5], the target named is CDK2-cyclin A (Homo sapiens, UniProt P24941). Description: Kinase assay (radioactive phosphate incorporation), CDK2-cyclin A. Conditions: read-out: Kinase Inhibition pIC50 CDK2-cyclin A (converted). The gist of the method:
as §1

Assay [6] has as its target CDK2-cycline E (Homo sapiens, UniProt P24941). The assay can be described thus: Kinase assay (radioactive phosphate incorporation), CDK2-cyclin E. Conditions: read-out: Kinase Inhibition pIC50 CDK2-cycline E (converted). The method in brief:
as §1

Assay [7] concerns the target T3, protein kinases (panel of Table 4) (Homo sapiens, UniProt P24941).
T3 construct: other: kinase CDK2A; ATP 100 μM; other: kinase CDK2E
The assay can be described thus: Kinase selectivity profile, kinase inhibition IC50 (Table 4), ATP 100 μM. The method, then:
as §2

[8] abbreviates: kinase CDK2A, read-out: Kinase inhibition IC50, CDK2A.
The mark [9] stands for this setting: kinase CDK2E, read-out: Kinase inhibition IC50, CDK2E.

The structures appear in SMILES notation. Read-outs that look alike come from different tables or passages of the source. Where only a bound is given, the exact number is not on record here.

Seven molecules from patent US20090137572A1, “2-substituted-4-heteroaryl-pyrimidines useful for the treatment of proliferative disorders” (priority 2004, published 2009) can be followed below.

Chain of CDK9/cyclin T1 (P50750 whole entry): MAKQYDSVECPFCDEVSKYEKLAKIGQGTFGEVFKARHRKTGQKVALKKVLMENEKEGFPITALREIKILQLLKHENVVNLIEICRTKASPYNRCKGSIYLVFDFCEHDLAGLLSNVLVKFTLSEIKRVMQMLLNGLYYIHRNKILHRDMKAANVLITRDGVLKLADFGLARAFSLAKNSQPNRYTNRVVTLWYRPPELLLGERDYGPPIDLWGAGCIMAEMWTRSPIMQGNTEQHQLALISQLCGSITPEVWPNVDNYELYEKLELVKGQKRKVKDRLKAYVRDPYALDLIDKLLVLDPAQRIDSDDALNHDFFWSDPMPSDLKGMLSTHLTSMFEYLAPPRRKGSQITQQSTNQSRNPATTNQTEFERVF
Chain of CDK9/cyclin T1 (O60563 whole entry partner): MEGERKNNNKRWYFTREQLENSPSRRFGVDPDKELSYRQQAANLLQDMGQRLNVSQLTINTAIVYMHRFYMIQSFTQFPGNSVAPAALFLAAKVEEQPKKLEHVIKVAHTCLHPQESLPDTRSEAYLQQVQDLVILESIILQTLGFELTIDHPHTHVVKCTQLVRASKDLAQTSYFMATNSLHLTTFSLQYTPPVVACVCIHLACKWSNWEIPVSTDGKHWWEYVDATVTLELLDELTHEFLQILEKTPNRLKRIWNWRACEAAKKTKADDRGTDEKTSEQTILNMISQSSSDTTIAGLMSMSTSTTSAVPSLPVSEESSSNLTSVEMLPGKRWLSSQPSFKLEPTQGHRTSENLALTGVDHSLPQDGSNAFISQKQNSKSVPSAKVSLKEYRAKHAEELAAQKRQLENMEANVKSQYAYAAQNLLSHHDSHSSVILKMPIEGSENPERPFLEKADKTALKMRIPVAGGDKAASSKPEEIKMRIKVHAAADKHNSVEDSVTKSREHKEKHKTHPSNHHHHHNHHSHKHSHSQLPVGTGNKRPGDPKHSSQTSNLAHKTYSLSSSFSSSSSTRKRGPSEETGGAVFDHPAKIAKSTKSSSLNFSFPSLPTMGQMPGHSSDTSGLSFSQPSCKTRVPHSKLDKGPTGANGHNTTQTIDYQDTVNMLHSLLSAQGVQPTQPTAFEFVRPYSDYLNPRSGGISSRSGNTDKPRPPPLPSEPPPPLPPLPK
Chain of CDK4-cyclin D1 (P11802 whole entry): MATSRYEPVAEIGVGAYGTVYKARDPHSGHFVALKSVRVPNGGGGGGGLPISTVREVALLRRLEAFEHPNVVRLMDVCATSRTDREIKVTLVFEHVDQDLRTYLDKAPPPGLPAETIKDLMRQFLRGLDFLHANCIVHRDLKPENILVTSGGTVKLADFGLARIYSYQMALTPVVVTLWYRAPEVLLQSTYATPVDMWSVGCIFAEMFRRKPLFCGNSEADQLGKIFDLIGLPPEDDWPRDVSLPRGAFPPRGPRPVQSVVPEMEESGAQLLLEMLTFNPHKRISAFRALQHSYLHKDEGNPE
Chain of CDK4-cyclin D1 (P24385 whole entry partner): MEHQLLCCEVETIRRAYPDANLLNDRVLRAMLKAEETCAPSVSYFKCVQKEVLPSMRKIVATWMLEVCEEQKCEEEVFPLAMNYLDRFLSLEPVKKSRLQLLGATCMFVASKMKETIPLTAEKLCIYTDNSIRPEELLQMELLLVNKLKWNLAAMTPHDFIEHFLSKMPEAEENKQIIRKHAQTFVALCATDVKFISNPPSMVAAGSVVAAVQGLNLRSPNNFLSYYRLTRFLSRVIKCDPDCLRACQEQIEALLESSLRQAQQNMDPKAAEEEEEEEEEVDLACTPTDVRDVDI
T2 sequence (P35968 whole entry): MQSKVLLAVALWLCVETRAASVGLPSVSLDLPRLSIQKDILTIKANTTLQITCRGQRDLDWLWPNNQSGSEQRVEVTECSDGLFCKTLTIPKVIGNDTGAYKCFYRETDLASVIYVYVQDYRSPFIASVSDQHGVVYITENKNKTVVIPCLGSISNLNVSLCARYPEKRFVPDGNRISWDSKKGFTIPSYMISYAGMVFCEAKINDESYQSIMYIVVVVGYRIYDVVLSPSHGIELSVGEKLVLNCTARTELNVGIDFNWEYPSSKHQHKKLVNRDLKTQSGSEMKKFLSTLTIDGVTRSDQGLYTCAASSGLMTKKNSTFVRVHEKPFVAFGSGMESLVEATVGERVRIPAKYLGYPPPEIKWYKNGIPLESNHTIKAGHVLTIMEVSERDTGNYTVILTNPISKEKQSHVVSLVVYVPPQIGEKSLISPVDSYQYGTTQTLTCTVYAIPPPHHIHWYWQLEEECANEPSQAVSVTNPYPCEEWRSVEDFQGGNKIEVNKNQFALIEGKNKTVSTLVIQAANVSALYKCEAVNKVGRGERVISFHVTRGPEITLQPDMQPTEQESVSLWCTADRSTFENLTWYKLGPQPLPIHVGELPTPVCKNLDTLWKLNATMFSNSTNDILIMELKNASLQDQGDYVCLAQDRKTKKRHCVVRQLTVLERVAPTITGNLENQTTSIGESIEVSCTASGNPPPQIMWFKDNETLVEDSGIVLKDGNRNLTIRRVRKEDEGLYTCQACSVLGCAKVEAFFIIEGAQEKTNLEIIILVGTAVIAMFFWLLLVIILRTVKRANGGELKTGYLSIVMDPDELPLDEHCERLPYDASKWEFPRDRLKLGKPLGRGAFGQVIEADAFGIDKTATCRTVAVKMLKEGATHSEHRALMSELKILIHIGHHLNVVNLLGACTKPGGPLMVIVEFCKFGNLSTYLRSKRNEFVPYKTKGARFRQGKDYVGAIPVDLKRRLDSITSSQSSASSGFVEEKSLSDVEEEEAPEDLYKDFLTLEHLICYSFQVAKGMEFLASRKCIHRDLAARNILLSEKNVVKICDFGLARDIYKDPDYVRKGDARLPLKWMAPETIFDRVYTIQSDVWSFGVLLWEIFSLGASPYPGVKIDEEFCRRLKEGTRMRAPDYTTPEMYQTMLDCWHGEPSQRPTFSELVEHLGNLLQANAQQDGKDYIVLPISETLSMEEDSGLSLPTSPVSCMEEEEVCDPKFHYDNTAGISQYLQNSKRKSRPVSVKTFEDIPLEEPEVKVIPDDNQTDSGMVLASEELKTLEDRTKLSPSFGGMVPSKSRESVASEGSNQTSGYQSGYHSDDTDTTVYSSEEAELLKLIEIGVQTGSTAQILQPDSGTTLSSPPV

As for `CNc1nc(C)c(-c2ccnc(Nc3cccc(S(N)(=O)=O)c3)n2)s1` [Compound 19, 3-[4-(4-Methyl-2-methylamino-thiazol-5-yl)-pyrimidin-2-ylamino]-benzenesulfonamide], the IC50 in assay [1] is 15.8 nM; in assay [2], 2.51 nM; in assay [3], 31.6 nM; in assay [4] it was 36 nM.

Regarding `CNc1nc(C)c(-c2ccnc(Nc3cccc(S(C)(=O)=O)c3)n2)s1` [Compound 27, (3-Methanesulfonyl-phenyl)-[4-(4-methyl-2-methylamino-thiazol-5-yl)-pyrimidin-2-yl]-amine], the IC50 in assay [5] is 6.31 nM; in assay [6], 3.16 nM; in assay [1] it was 158 nM; in assay [2], 1 nM; in assay [3] it was 63.1 nM; in assay [7] (setting [8]) it was 7 nM. Moreover, the IC50 is 3 nM in assay [7] (setting [9]) and 44 nM in assay [4].

As for `CNc1nc(C)c(-c2ccnc(Nc3ccc(C)c(S(=O)(=O)N4CCOCC4)c3)n2)s1` [Compound 37, [4-(4-Methyl-2-methylamino-thiazol-5-yl)-pyrimidin-2-yl]-[4-methyl-3-(morpholine-4-sulfonyl)-phenyl]-amine], the IC50 in assay [6] is 3160 nM; in assay [3], 158 nM; in assay [7] (setting [8]), greater than 10000 nM; in assay [7] (setting [9]), 3000 nM; in assay [4], 390 nM.

With `Cc1ccc(Nc2nccc(-c3sc(N)nc3C)n2)cc1S(=O)(=O)N1CCOCC1` [Compound 38, [4-(2-Amino-4-methyl-thiazol-5-yl)-pyrimidin-2-yl]-[4-methyl-3-(morpholine-4-sulfonyl)-phenyl]-amine], the IC50 was 25.1 nM in assay [2], 200 nM in assay [3], greater than 10000 nM in assay [7] (setting [8]) and greater than 10000 nM in assay [7] (setting [9]).

Consider `COCCNS(=O)(=O)c1cccc(Nc2nccc(-c3sc(N)nc3C)n2)c1` [Compound 55, 3-[4-(2-Amino-4-methyl-thiazol-5-yl)-pyrimidin-2-ylamino]-N-(2-methoxy-ethyl)-benzenesulfonamide], for which the IC50 is 2000 nM in assay [5]; 251 nM in assay [6]; 1580 nM in assay [1]; 31.6 nM in assay [2]; 200 nM in assay [3]; 2100 nM in assay [7] (setting [8]). Moreover, the IC50 stood at 270 nM in assay [7] (setting [9]) and 240 nM in assay [4].

With `CCNc1nc(C)c(-c2ccnc(Nc3ccc(N4CCNCC4)cc3)n2)s1` [Compound 59, [4-(2-Ethylamino-4-methyl-thiazol-5-yl)-pyrimidin-2-yl]-(4-piperazin-1-yl-phenyl)-amine], the IC50 in assay [5] was 501 nM; in assay [6] it was 158 nM; in assay [1], 39.8 nM; in assay [2], 100 nM; in assay [3] it was 15.8 nM; in assay [7] (setting [8]), 630 nM. Besides, the IC50 in assay [7] (setting [9]) was found to be 150 nM; in assay [4], 46 nM.

For `Cc1nc(CS(=O)(=O)c2cccs2)sc1-c1ccnc(Nc2ccc(N3CCOCC3)cc2)n1` [Compound 138, {4-[4-Methyl-2-(thiophene-2-sulfonylmethyl)-thiazol-5-yl]-pyrimidin-2-yl}-(4-morpholin-4-yl-phenyl)-amine], the IC50 in assay [6] is 3980 nM.
